Experimental data taken from US20220023316A1, “METHODS FOR THE TREATMENT OF DEPRESSION” (Praxis Precision Medicines, Inc., priority 2018, published 2022).

Experiments:
[1] = human, in vivo
Description: (§2) Healthy subjects aged 18 to 55 years were treated with an oral suspension of Compound 1 to study the safety, tolerability, pharmacokinetics and pharmacodynamics of Compound 1 in healthy subjects.
(§3) The study was a randomized, double-blind, placebo-controlled multiple escalating dose study comprised of 3 cohorts that each received an oral suspension. Each cohort consisted of two groups: one group treated with Compound 1 and another treated with placebo. In each cohort, the ratio of Compound 1-treated subjects to placebo-treated subjects was 3:1.
(§4) The Compound 1-treated subjects of Cohort 1 were treated with 15.0 mg of Compound 1 once per day (QD). The Compound 1-treated subjects of Cohort 2 were treated with 30.0 mg of Compound 1 QD. The Compound 1-treated subjects of Cohort 3 were treated with 60.0 mg of Compound 1 QD.
(§5) Patients in each cohort were treated with Compound 1 for 14 consecutive days, unless dosing was halted by the Safety Review Committee (SRC). The dosing of subjects in each of the cohorts was staggered with the decision to dose escalate based on SRC review of a minimum of 14 days of observation of safety and tolerability data and review of the available plasma PK data from the preceding cohort(s).
(§6) Compound 1 was administered under fasted conditions (no food or drink, except water, for at least 10 hours prior to dosing). Immediately after administration of Compound 1, the subject was be administered 240 mL water. No additional fluid intake was allowed until 1 hour after Compound 1 administration.
(§7) Cohort 1 subjects received a single 15.0 mg dose of a Compound 1 suspension on the morning of Days 1-14. Cohort 2 subjects received a single 30.0 mg dose of a Compound 1 suspension on the morning of Days 1-14. Cohort 3 subjects received a single 60.0 mg dose of a Compound 1 suspension on the morning of Days 1-14. For all cohorts, the last treatment was administered on the morning of Day 14.
(§8) PK parameters (e.g., Cmax, Tmax, T1/2, AUC, etc.) for healthy patients in each cohort was compared to assess the suitability of Compound 1 suspension for the treatment of MDD. Data were obtained from the blood plasma samples collected from each cohort according to the schedule provided.
(§9) Plasma samples were analyzed to determine Compound 1 concentrations using a validated assay method. Pharmacokinetic variables (including but not limited to Cmax, Tmax and AUC(0-last)), were calculated using non-compartmental analysis. PK parameters for Compound 1 were derived from the plasma concentration data using non-compartmental analysis with Phoenix™ WinNonlin® v 8.0 (Pharsight Corporation, USA).
(§10) Blood (Cohorts 1-3): For each cohort, blood samples were collected on Days 1, 2, 3, 4, 5, 6 and 14 at the following time points: Day 1 at pre-dose (0 hour), 0.25, 0.5, 0.75, 1, 1.5, 2, 2.5, 3, 4, 6, 8, 12, 16 h post-dose; Day 2 at pre-dose (24 h), Day 3 at pre-dose (48 h), Day 4 at pre-dose (72 h), Day 5 at pre-dose (96 h), Day 6 at pre-dose (120 h); Day 14 at pre-dose 0.25, 0.5, 0.75, 1, 1.5, 2, 2.5, 3, 4, 6, 8, 12, 16, 24, 36, 48, and 72 hours. Trough level blood samples were collected on Days 2, 3, 4, 5, 6 and 14, prior to the morning dose administrations.
(§11) Descriptive statistics were calculated for plasma and urine PK parameter and concentration data, and summarized by study day and time point. Arithmetic means, coefficient of variation (CV), standard deviation, median, minimum, and maximum values, and number of observations were calculated for all PK parameters and trough concentration data. Except for Tmax, the geometric mean, geometric standard deviation, and geometric CV were provided for all PK parameter and concentration data.

[2] = Multiple escalating dose PK study of oral suspension in healthy subjects (Cohorts 1-3); details: for t1/2: Day 14 steady state
Description: as §2, §3, §4, §5, §6, §7, §8, §9, §10, §11

[3] = test system: severe major depressive disorder (MDD); assay: Open-label study in patients with severe MDD, Part A efficacy (HAM-D); format: in vivo, human
Description: The study is an open-label, study comprised of two dosing periods, Part A and Part B, during which patients were treated with an oral suspension of Compound 1. Part A was an open-label assessment of two dose levels of Compound 1 (45 mg qHS Cohort 1 and 80 mg qHS Cohort, i.e., once daily administration at bedtime) administered for 7 days inpatient followed by 7 days outpatient. PRAX-114 was administered at 4 PM on Day 1 in order to collect post-dosing PK samples that could not be collected with qHS dosing.
(§1) In Part A, participants were administered daily doses of Compound 1 (45 mg Cohort and 80 mg Cohort) at 4 PM on Day 1 and qHS on all other study days for 7 days inpatient followed by 7 days outpatient (with subsequent Cohorts receiving up to 120 mg qHS). Participants checked into the clinic on Day 1. During this period the following assessments were performed: adverse event assessments, vital signs, physical examinations, blood and urine samples for safety assessments, ECGs, C-SSRS assessments, blood samples for PK, and efficacy assessments (HAM-D, MADRS, HAM-A, CGI [CGI-S and CGI-I], PSQI, and SDQ). Baseline assessments occurred on Day 1 prior to administration of study drug. On Day 8, prior to discharge, participants were supplied with sufficient Compound 1 to complete 7 days of dosing.
Patients were administered daily doses of Compound 1 for 7 days inpatient followed by 7 days outpatient.
In the 45 mg Cohort, patients were administered once daily dose of 45 mg of Compound 1 at bedtime for 7 days inpatient followed by once daily dose of 45 mg of Compound 1 at bedtime for 7 days outpatient.
In the 80 mg Cohort, patients were administered once daily dose of 80 mg of Compound 1 at bedtime for 7 days inpatient followed by once daily dose of 80 mg of Compound 1 at bedtime for 7 days outpatient.
Part A: In Part A, HAM-D, MADRS, HAM-A, CGI-S, and CGI-I values were collected in the morning of Days 1, 2, 3, 4, 5, 6, 7, 8, 15, 21 and 28. PSQI and SDQ values will be collected on Days 1, 8, 15, 21 and 28. Part B: In Part B, HAM-D, MADRS, HAM-A, CGI-S, CGI-I, PSQI and SDQ values will be collected on the days described for Part A.
HAM-D Response was defined as a reduction from baseline of >50% in total HAM-D score. HAM-D remission was defined as a total HAM-D score of <7.
Efficacy analysis: For both parts of the clinical trial, the HAM-D total score and change from baseline values will be summarized by treatment group and time point. In addition, the change from baseline in HAM-D total score will also be analyzed using paired t-tests or similar methods. The null hypothesis of this test is that the mean difference in HAM-D total score between paired observations (i.e., pre- and post-treatment) is zero. Similar analysis methods will be used for all secondary and exploratory efficacy variables.

[4] = human, in vivo, 30 mg
Description: (§12) A Food Effect Cohort (Cohort 4) was conducted to assess the effect of food on the PK profile of a single dose of Compound 1 when administered to healthy subjects. The subjects of Cohort 4 were treated with 30 mg of Compound 1 QD.
(§13) Cohort 4 subjects received a single 30 mg dose of a Compound 1 suspension on Days 1 and 5. The Day 1 dose was administered after a minimum of 10 hour fasting. No additional fluid intake was allowed until 1 hour after drug administration. A standard meal was given at least 4 hours post-dose. The Day 5 dose was administered following a high-fat, high calorie meal. Participants remained at the clinical site for a total of 8 days to complete PK sampling after the second dose.
as §9
(§14) Urine (Cohort 4): No urine analysis was conducted in Cohort 4.

[5] = Food Effect Cohort (Cohort 4) PK, single 30 mg dose fasted vs fed; details: healthy subjects
Description: as §12, §13, §9, §14

[6] = Safety and tolerability in MDD patients, Part A; format: in vivo, human; details: 80 mg Cohort
Description: as §1
Adverse events (AEs) will be monitored throughout the duration of the study.

[7] = Safety and tolerability in healthy subjects (Cohorts 1-3); format: in vivo, human
Description: Blood and urine were obtained during each treatment period at designated times for PK and other analyses (see below). Standard safety assessments were measured during each treatment period.

[8] = Cohorts 1-3, 15-60 mg QD for 14 days

## COC[C@@]1(O)CC[C@@]2(C)[C@@H](CC[C@@H]3[C@@H]2CC[C@]2(C)[C@@H](C(=O)Cn4ccnc4)CC[C@@H]32)C1 [Compound 1, 3α-Hydroxy-3β-methoxymethyl-21-(1′-imidazolyl)-5α-pregnan-20-one]
[1]
  increase in Cavg, AUCss and AUCinf with dose: proportional increase
  increase in Cmax and AUC parameters at steady state with dose: approximate proportional increase
[2]; Cohort 1, 15.0 mg QD oral suspension, Geo Mean
  t1/2: 14.613 h
[2]; Cohort 1, 15.0 mg QD oral suspension, Mean
  t1/2: 14.77 ± 2.26 h
[2]; Cohort 1, 15.0 mg QD oral suspension, Median
  t1/2: 15.26 h
[2]; Cohort 2, 30.0 mg QD oral suspension, Geo Mean
  t1/2: 12.647 h
[2]; Cohort 2, 30.0 mg QD oral suspension, Mean
  t1/2: 12.70 ± 1.23 h
[2]; Cohort 2, 30.0 mg QD oral suspension, Median
  t1/2: 12.90 h
[2]; Cohort 2, 30.0 mg QD oral suspension, fasted, Day 1, Geometric Mean
  Cmax: 120.018 ng/mL
[2]; Cohort 3, 60.0 mg QD
  accumulation factor of the dosing interval (ratio of AUCDay14/AUCDay1): 0.89
[2]; Cohort 3, 60.0 mg QD oral suspension, Geo Mean
  t1/2: 12.164 h
[2]; Cohort 3, 60.0 mg QD oral suspension, Mean
  t1/2: 12.23 ± 1.32 h
[2]; Cohort 3, 60.0 mg QD oral suspension, Median
  t1/2: 12.42 h
[3]; 45 mg Cohort (45 mg qHS), Day 7, 13 patients
  patients meeting HAM-D Response or Remission criterion: 11 of the 13
[3]; 45 mg Cohort (45 mg qHS), Day 15, 13 patients
  patients meeting HAM-D Response or Remission criteria: 8 of the 13
[3]; 80 mg Cohort (80 mg qHS), Day 7
  least squares Mean Change from Baseline in HAM-D score: −20.0
[3]; 80 mg Cohort (80 mg qHS), Day 15
  least squares Mean Change from Baseline in HAM-D score: −16.0
[3]; 80 mg Cohort (80 mg qHS), Day 15, 7 patients
  patients meeting HAM-D Response or Remission criteria: 6 of the 7
[3]; as monotherapy and in combination with another antidepressant
  Efficacy (reduction Mean Change from Baseline in HAM-D score): observed
[3]; daily dose of 45 mg or 80 mg, oral suspension, MDD patients
  symptoms of MDD: reduced symptoms of moderate to severe MDD
[3]; patients undergoing first course of antidepressant treatment and patients that failed previous courses
  Efficacy (reduction Mean Change from Baseline in HAM-D score): observed
[4]
  Cmax higher under fasting conditions compared to fed: 1.5-1.6 times
  Tmax under fasting compared to fed conditions: tendency for a shorter Tmax
[4]; po
  AUCinf: 602.3 (304.84) h · ng/mL
[5]; Fed (Day 1) n =10 as head prints, single 30 mg oral suspension after high-fat, high calorie meal, Mean (SD)
  t1/2: 11.26 (0.8641) h
[5]; single 30 mg dose
  t1/2 fasted versus fed: similar
[6]
  Adverse Event profile compared to the 45 mg Cohort: no change in Adverse Event profile
  tolerability of the dose: well tolerated
[7]; [8]
  Serious Adverse Events: no Serious Adverse Events
  clinically relevant vital sign, ECG, or lab abnormalities: no clinically relevant vital sign, ECG, or lab abnormalities
[7]; doses of 30 mg and 60 mg QD
  elevated mood: several subjects experienced elevated mood
